The record followed here is patent US6410792B1, “Amide derivatives and methods for using the same as selective neuropeptide Y receptor antagonists” (Bayer Corporation, priority 1997, dated 2002).

One test concerns the target T1, Y2 receptor (Homo sapiens, UniProt P49146).
T1 sequence (P49146 1-381): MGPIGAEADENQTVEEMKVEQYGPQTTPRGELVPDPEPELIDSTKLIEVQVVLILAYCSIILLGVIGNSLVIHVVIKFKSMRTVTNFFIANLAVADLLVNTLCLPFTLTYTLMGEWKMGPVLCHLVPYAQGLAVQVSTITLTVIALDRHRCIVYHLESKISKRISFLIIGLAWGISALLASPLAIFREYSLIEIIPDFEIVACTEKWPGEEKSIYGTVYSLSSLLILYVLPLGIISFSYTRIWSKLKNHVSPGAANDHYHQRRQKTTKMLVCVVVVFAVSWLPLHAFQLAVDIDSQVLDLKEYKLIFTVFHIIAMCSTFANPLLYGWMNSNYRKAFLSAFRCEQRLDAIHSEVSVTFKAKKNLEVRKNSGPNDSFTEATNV
Put plainly: Y2 receptor binding assay ([125I]PYY, membrane protein). The settings on record: [125I]PYY, membrane protein; read-out: hNPY2 IC50. The method in brief: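 Filtration binding with membrane protein and drug dilution, 2 h at room temperature with mixing, radioactivity counted by gamma or scintillation. Y2: 25 pM [125I]PYY in Krebs-Ringer bicarbonate pH 7.4 with 0.01% BSA, nonspecific by 1 μM NPY. Y4/PP1: 50 pM [125I]hPP in HEPES-buffered saline pH 7.4 with protease inhibitors and 0.3% BSA, nonspecific by 1 μM hPP.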

The next test has as its target human Y4/PP1 receptor (Homo sapiens, UniProt P50391). Put plainly: Human Y4/PP1 receptor binding assay ([125I]human PP, membrane protein). Particulars: [125I]human PP, membrane protein; read-out: hNPY4 IC50. On the procedure: B. Human Y2 and Y4/PP1 Receptor Binding Assays
Binding assays were performed on GF/C Millipore 96-well plates pretreated with 0.02% polyethylenimine. The binding buffer for rat Y2 binding is Krebs-Ringer bicarbonate (pH 7.4) containing 0.01% BSA and 0.005% bacitracin. Samples consist of membrane protein, 25 pM [1251]PYY and drug dilution. Nonspecific binding is defined by 1 μM NPY. The binding buffer for human Y4/PP1 binding consists of 137 mM NaCl, 5.4 mM KCl, 0.44 mM KH2PO4, 1.26 mM CaCl2, 0.81 mM MgSO4, 20 mM HEPES, 1 mM dithiothreitol, 0.1% bacitracin, 100 mg/l streptomycin sulfate, 1 mg/l aprotinin, 10 mg/ml soybean trypsin inhibitor and 0.3% BSA, pH 7.4. Samples consist of membrane protein, 50 pM human [1251]human PP (hPP: NEN DuPont, Boston, Mass.) and drug dilution. 1 μM hPP is used to define nonspecific binding.
After a 2 hour incubation at room temperature with constant mixing, the samples are aspirated on a vacuum manifold, and rinsed with ice-cold binding buffer. The amount of radioactivity in each well is quantitated with either gamma counting or liquid scintillation.

The next test deals with T2, Human NPY5 receptor (Homo sapiens, UniProt Q15761).
T2 sequence (Q15761 1-445): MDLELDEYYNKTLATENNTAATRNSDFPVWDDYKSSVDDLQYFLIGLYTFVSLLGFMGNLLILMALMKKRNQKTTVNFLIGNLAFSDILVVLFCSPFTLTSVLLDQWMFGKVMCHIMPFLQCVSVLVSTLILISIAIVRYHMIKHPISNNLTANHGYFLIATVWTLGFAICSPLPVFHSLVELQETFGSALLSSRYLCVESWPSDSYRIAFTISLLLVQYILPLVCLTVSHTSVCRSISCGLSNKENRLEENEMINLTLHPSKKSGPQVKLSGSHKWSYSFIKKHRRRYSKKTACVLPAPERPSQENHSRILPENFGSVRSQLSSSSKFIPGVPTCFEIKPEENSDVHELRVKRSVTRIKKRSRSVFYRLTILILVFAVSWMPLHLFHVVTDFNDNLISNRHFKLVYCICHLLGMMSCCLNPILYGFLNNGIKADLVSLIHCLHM
Put plainly: Human NPY5 receptor binding assay ([125I]PYY, membrane protein). Particulars: read-out: hNPY5 IC50. The gist of the method:
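Filter binding with membrane protein and porcine [125I]PYY at 75-100 pM, 2 h at room temperature; nonspecific binding set by 1 μM PYY.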

A further test concerns the target T3, Human NPY1 receptor (Homo sapiens, UniProt P25929).
T3 construct: host or cells: SK-N-MC cells
T3 sequence (P25929 1-384): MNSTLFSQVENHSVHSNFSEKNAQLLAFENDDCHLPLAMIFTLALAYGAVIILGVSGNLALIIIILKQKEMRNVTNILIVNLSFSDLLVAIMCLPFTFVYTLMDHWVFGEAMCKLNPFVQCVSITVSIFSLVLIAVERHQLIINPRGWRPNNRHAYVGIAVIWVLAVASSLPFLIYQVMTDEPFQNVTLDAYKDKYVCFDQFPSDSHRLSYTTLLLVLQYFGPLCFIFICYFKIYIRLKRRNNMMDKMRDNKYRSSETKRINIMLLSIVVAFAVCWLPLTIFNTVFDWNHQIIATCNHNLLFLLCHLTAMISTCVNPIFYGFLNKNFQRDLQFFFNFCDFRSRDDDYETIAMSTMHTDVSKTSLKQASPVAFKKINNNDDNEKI
Put plainly: Human NPY1 receptor binding assay ([125I]PYY, SK-N-MC cells). The settings on record: [125I]PYY, SK-N-MC cells; read-out: hNPYI IC50. On the procedure: A. Human NPY1 Receptor Binding Assay
This is a modification of Gordon et al., (J. Neurochem. 55:506-513, 1990). SK-N-MC cell (ATCC, Rockville, Md.) were plated in 24-well plates. Once confluent, cells were rinsed with Dulbecco's phosphate buffered saline (DPBS). Cells were then preincubated in binding buffer containing serum-free DMEM, 25 mM HEPES (pH 7.3), 0.5% bovine serum albumin (BSA), 0.1% bacitracin and 0.1 mM phenylmethylsulfonylfluoride for 30 minutes at room temperature. Drug dilution and [125I]PYY (˜50 pM: NEN-DuPont) were added to the wells, and the cells were incubated for an additional 3 hours at room temperature, followed by rinsing with ice-cold DPBS. Nonspecific binding was defined with 1 μM NPY. After lysing the cells with 1% Triton X-100, the amount of radioactivity in the lysates was quantitated with a gamma counter.

Another test addresses T4, Rat NPY5 receptor (Rattus norvegicus, UniProt Q63634).
T4 sequence (Q63634 1-445): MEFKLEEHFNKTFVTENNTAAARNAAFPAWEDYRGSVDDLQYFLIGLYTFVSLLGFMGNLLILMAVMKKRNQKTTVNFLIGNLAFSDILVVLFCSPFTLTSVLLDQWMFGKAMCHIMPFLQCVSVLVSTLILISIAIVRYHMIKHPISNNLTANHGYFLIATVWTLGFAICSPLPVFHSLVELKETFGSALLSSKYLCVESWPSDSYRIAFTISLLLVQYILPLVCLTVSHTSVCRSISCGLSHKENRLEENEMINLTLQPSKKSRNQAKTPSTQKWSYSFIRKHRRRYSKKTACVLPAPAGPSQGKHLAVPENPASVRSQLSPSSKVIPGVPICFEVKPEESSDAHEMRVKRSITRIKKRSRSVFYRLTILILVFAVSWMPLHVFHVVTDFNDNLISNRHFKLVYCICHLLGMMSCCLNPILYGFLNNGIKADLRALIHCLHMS
The test can be described thus: Rat NPY5 receptor binding assay ([125I]PYY, membrane protein). Particulars: read-out: rNPY5 IC50. Here is the method: C. Human and Rat NPY5 Receptor Binding Assays
Binding assays are performed on GF/C Millipore 96well plates pretreated with 0.02% polyethylenimine. The binding buffer is 25 mM Tris, 120 mM NaCl, 5 mM KCl, 1.2 mM KH2PO4, 2.5 mM CaCl2, 1.2 mM MgSO4, 0.1% BSA and 0.5 mg/ml bacitracin, pH 7.4. Samples consist of membrane protein, 75-100 pM [125I]PYY (porcine, NEN-DuPont) and drug dilution. Nonspecific binding is defined by 1 μM PYY. After a 2 hour incubation at room temperature with constant mixing, the samples are aspirated on a vacuum manifold, and rinsed with ice-cold binding buffer. The amount of radioactivity in each well is quantitated with either gamma counting or liquid scintillation.

Structures can show the parent of a compound that is named as a salt. Where two headings read alike, the source gives them in different places.

Chain of human Y4/PP1 receptor (P50391 whole entry): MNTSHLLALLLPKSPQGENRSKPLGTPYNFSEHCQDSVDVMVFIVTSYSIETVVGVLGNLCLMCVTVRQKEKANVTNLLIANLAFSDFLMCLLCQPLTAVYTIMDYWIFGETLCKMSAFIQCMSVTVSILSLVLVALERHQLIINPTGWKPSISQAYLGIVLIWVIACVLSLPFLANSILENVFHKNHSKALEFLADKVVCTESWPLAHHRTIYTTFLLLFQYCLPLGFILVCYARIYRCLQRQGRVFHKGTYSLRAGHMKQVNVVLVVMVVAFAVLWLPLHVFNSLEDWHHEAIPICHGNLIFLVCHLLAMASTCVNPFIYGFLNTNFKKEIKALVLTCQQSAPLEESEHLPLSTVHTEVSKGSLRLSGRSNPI

As to `O=C(CNCCCn1c(=O)[nH]c2ccccc21)Nc1ccc(C2CCCCC2)cc1` [Compound 276, N-(4-Cyclohexyl-phenyl)-2-[3-(2-oxo-2,3-dihydro-benzoimidazol-1-yl)-propylamino]-acetamide], the IC50 is > 5 µM at Y2 receptor, > 5 µM at human Y4/PP1 receptor and 1100 nM on Human NPY5 receptor ([125I]PYY).

For the compound `O=C(CN1CCC(n2c(=O)[nH]c3ccccc32)CC1)Nc1cccc(-c2ccccc2)c1` [Compound 323, N-Biphenyl-3-yl-2-[4-(2-oxo-2,3-dihydro-benzoimidazol-1-yl)-piperidin-1 yl]-acetamide; hydrochloride], the IC50 on Human NPY1 receptor was > 5 µM; on human Y4/PP1 receptor, > 5 µM; on Human NPY5 receptor ([125I]PYY) it was 26 nM; on Rat NPY5 receptor ([125I]PYY), 26 nM.

With `O=C(CN1CCC(n2c(=O)[nH]c3ccccc32)CC1)NC1CC2CCC1C2` (stereo not shown) [Compound 326, N-Bicyclo[2.2.1]hept-2-yl-2-[4-(2-oxo-2,3-dihydro-benzoimidazol-1-yl)-piperidin-1-yl] acetamide], the IC50 at Y2 receptor and on human Y4/PP1 receptor was > 5 µM throughout.

Turning to `COc1ccc(-c2ccccc2)cc1NC(=O)CN1CCC(n2c(=O)[nH]c3ccccc32)CC1` [Compound 328, N-(4-Methoxy-biphenyl-3-yl)-2-[4-(2-oxo-2,3-dihydro-benzoimidazol-1-yl)-piperidin-1-yl]-acetamide; hydrochloride], the IC50 at Y2 receptor and on human Y4/PP1 receptor was > 5 µM throughout.

In the case of `Nc1ccccc1NC(=O)CN1CCC(n2c(=O)[nH]c3ccccc32)CC1` [Compound 331, N-(2-Amino-phenyl)-2-[4-(2-oxo-2,3-dihydro-benzoimidazol-1-yl)-piperidin-1-yl]-acetamide, reference compound], the IC50 on Y2 receptor and at human Y4/PP1 receptor was > 5 µM in each case.

Turning to `O=C(CN1CCC(n2c(=O)[nH]c3ccccc32)CC1)NCc1ccc(F)cc1F` [Compound 332, N-(2,4-Difluoro-benzyl)-2-[4-2(oxo-2,3-dihydro-benzoimidazol-1-yl)-piperidin-1-yl]-acetamide, reference compound], the IC50 is > 5 µM on Human NPY1 receptor, > 5 µM at Y2 receptor, 610 nM on Human NPY5 receptor ([125I]PYY) and 530 nM at Rat NPY5 receptor ([125I]PYY).

As to `COC(=O)c1cc(Cl)ccc1NC(=O)CN1CCC(n2c(=O)[nH]c3ccccc32)CC1` [Compound 333, 5-Chloro-2-{2-[4-(2-oxo-2,3-dihydro-benzoimidazol-1-yl)-piperidin 1-yl]-acetylamino}-benzoic acid methyl ester, reference compound], the IC50 at Y2 receptor and on human Y4/PP1 receptor was > 5 µM throughout.

Regarding `NC(=O)c1cc(N)ccc1NC(=O)CN1CCC(n2c(=O)[nH]c3ccccc32)CC1` [Compound 334, 5-Amino-2-{2-[4-(2-oxo-2,3-dihydro-benzoimidazol-1-yl)piperidin 1-yl]-acetylamino}-benzamide, reference compound], the IC50 at Y2 receptor and on human Y4/PP1 receptor was > 5 µM in each case.

For the compound `O=C(CN1CCC(n2c(=O)[nH]c3ccccc32)CC1)Nc1ccc(Nc2ccccc2)cc1` [Compound 337, 2-[4-(2-Oxo-2,3-dihydro-benzoimidazol-1-yl)-piperidin-1-yl]-N-(4-phenylamino-phenyl)-acetamide, reference compound], the IC50 at Human NPY1 receptor is > 5 µM; on human Y4/PP1 receptor it was > 5 µM; at Human NPY5 receptor ([125I]PYY) it was 96 nM; at Rat NPY5 receptor ([125I]PYY), 108 nM.

Turning to `O=C(CN1CCC(n2c(=O)[nH]c3ccccc32)CC1)Nc1cccc2ccc(O)cc12` [Compound 340, reference compound], the IC50 on Human NPY1 receptor was > 5 µM; on Y2 receptor, > 5 µM; at human Y4/PP1 receptor, > 5 µM; on Human NPY5 receptor ([125I]PYY) it was 227 nM.

On to `O=C(CN1CCOCC1)Nc1ccc(C2CCCCC2)cc1` [Compound 362, N-(4-Cyclohexyl-phenyl)-2-morpholin-4-yl-acetamide, reference compound], for which the IC50 on Human NPY1 receptor is > 5 µM; at human Y4/PP1 receptor, > 5 µM; on Human NPY5 receptor ([125I]PYY), 200 nM; at Rat NPY5 receptor ([125I]PYY), 115 nM.

For “N-(4-Cyclohexyl-phenyl)-2-(3-ethylamino-pyrrolidin-1-yl)-acetamide [Compound 196]”, the IC50 at Human NPY5 receptor ([125I]PYY binding) came out at 43 nM; at Rat NPY5 receptor ([125I]PYY binding) it was 49 nM.

On to “N-{[(4-Cyclohexyl-phenylcarbamoyl)-methyl]-pyrrolidin-3-yl}-2,2,2-trifluoro-acetamide [Compound 197]”, for which the results for the IC50 at Human NPY5 receptor ([125I]PYY binding) and at Rat NPY5 receptor ([125I]PYY binding) were 21 nM and 20 nM, respectively.
